From US20240115644A1, “COMPOSITION FOR PREVENTING, IMPROVING OR TREATING GASTRITIS OR PEPTIC ULCER COMPRISING EXTRACT OF CINNAMOMUM CASSIA, FRACTION OF SAID EXTRACT, ISOLATE OF SAID FRACTION OR COMPOUNDS ISOLATED THEREFROM” (CHONG KUN DANG PHARMACEUTICAL CORP., priority 2020, published 2024)

How the values were obtained:
Raw 264.7 cells = test: Nitric oxide (NO) production inhibitory activity in LPS-stimulated Raw 264.7 cells (Griess reagent); format: cell-based; design: NO inhibition rate (%): concentration or dose not given beside the values; details: for NO: Raw 264.7 cells, LPS 100 ng/ml, sample concentration not given; for NO inhibition rate (%): vs LPS-only group
Protocol: [Measurement of Anti-Inflammatory Effect in Raw 264.7 Cells] Experimental Example 1. Confirmation of Nitric Oxide Production Inhibitory Activity Nitric oxide (NO) measurement was measuring the amount of nitric oxide (NO) in the supernatant of cells as nitrite and nitrate. The safe form after oxidation from nitrite to nitrate was measured using a griess reagent (Sigma, USA). In a […], 3×10^5 cells were cultured for 24 hours. […] Then, all wells except the normal group were stimulated by adding 100 ng/ml Lipopolysaccharide (LPS). After reacting with the griess reagent for 5 minutes, the absorbance was measured at 540 nm. The calibration curve was prepared using sodium nitrite solution, and the concentration of nitrite was calculated through absorbance. The NO inhibition rate was evaluated by a method of comparing with the group treated only with LPS according to Equation 1 below. The result was shown in the following Tables 7, 8, 9, 10, 11 and 12 and FIGS. 2, 3, 4 and 5. NO inhibition rate (%)=100−[(NO production amount of sample addition group*×100)/NO production amount of sample non-addition group*] [Equation 1] *Lipopolysaccharide (LPS) treatment group

[1] = system: indomethacin-induced gastric ulcer; test: Gastric ulcer index / inhibition rate in indomethacin-induced animal model; format: in vivo, rats; details: for Inhibition rate (%): gastric ulcer, rats, stomach excised 5 h after; for gastric ulcer inhibition rate compared to Stillen and Rebamipide (in words) / level of gastric ulcer inhibition rate despite the very small amount (in words): indomethacin-induced rats, summary of Table 13 and FIG. 7
Excerpt: [Measurement of gastric ulcer inhibitory effect in animals]
Experimental Example 2. Confirmation of Gastric Ulcer Inhibition Rate
Evaluation of Gastric Ulcer Index in Indomethacin-Induced Animal Model
For test animals, 7-week-old male rats without specific pathogens (SPF) were randomly distributed to each group by a randomized method so that the average body weight was distributed as evenly as possible after the adaptation period (7 days). The administration route was single administration of artemisia extract, and rebamipide and ethyl acetate pretreated water extract of Cinnamomum cassia, fraction (N2-1), 3,4-dihydroxybenzaldehyde, ferulic acid, 4-hydroxycinnamaldehyde, as oral administration, respectively, and the dose was calculated and administered as 10 mL/Kg based on the body weight measured on the day of administration. All animals were fasted 48 hours before administration of the test substance and control drug, and then each test substance and control drug were orally administered, and at 30 minutes after administration, indomethacin prepared in advance was orally administered at a dose of 80 mg/kg. After anesthesia with diethyl ether at 5 hours after administration of indomethacin, the stomach was excised and the gastric mucosa was photographed with a digital camera. The area of the damaged part was analyzed using ImageJ software (NIH, Bethesda, MD). The gastric ulcer index was measured according to the following equation.
Gastric ulcer index (%)=(damaged area/total area)×100 [Equation 2]

[2] = Prep-HPLC purified products from N2-1
[3] = single oral dose 1.5 mg/kg 30 min before indomethacin 80 mg/kg p.o.
[4] = Prep-HPLC purified products from R2-2

Compound | NO (Raw 264.7 cells; [2]) | NO inhibition rate (%) (Raw 264.7 cells; [2]) | gastric ulcer inhibition rate compared to Stillen and Rebamipide (in words) [1] | level of gastric ulcer inhibition rate despite the very small amount (in words) [1] | NO (Raw 264.7 cells; [4]) | NO inhibition rate (%) (Raw 264.7 cells; [4]) | other results
COc1cc(/C=C/C(=O)O)ccc1O [Compound A, ferulic acid] | 49.57 µM | 0% | excellent gastric ulcer inhibition rate | very high level of gastric ulcer inhibition rate | – | – | Inhibition rate (%) [1, 3]: 61.8%
COc1cc(C(=O)O)cc(OC)c1O [Compound E, syringic acid] | – | – | – | – | 47.83 µM | 0% | –
O=C(O)CCc1ccccc1O [Compound C, 3-(2-hydroxyphenyl)propanoic acid] | 48.54 µM | 0% | – | – | – | – | –
COc1cc(C(=O)O)ccc1O [Compound F, vanillic acid] | – | – | – | – | 49.88 µM | 0% | –
O=C(NC(Cc1cc(=O)[nH]c2ccccc12)C(=O)O)c1ccc(Cl)cc1 (stereo not shown) [Rebamipide, reference compound] | – | – | – | – | – | – | Inhibition rate (%) ([1]; single oral dose 30 mg/kg 30 min before indomethacin 80 mg/kg p.o.): 21.5%
O=Cc1ccc(O)c(O)c1 [Compound D, 3,4-dihydroxybenzaldehyde] | – | – | excellent gastric ulcer inhibition rate | very high level of gastric ulcer inhibition rate | 44.41 µM | 10% | Inhibition rate (%) [1, 3]: 61.3%
O=C/C=C/c1ccc(O)cc1 [Compound B, 4-hydroxycinnamaldehyde] | 35.18 µM | 29% | excellent gastric ulcer inhibition rate | very high level of gastric ulcer inhibition rate | – | – | Inhibition rate (%) ([1]; single oral dose 2.0 mg/kg 30 min before indomethacin 80 mg/kg p.o.): 46.1%
